Earlier results as cited in patent US12600787B2, “Methods for the treatment of thyroid eye disease” (Horizon Therapeutics Ireland DAC, priority 2019, dated 2026).
Where two headings read alike, the source gives them in different places.

Tests used:
[1] = cited from earlier work
[2] = test system: TED (GO); conditions: cited from earlier work
[3] = biological target: IGF-1 R (Homo sapiens, UniProt P08069); conditions: cited from earlier work
[4] = test system: IGF-1 R-overexpressing tumor cells; conditions: cited from earlier work
[5] = biological target: ALK (Homo sapiens, UniProt Q9UM73); conditions: cited from earlier work
[6] = test system: neuroblastoma; conditions: by overcoming crizotinib resistance and inducing apoptosis; cited from earlier work
[7] = cited from earlier work; remark: listed apart in the source
[8] = test system: tumors; conditions: in vivo; cited from earlier work
[9] = biological target: c-erbB2/HER2/neu receptor (Homo sapiens, UniProt P04626); conditions: cited from earlier work
[10] = test system: susceptible tumor cell populations; conditions: cited from earlier work
[11] = biological target: IGF-IR (purified enzyme) (Homo sapiens, UniProt P08069); conditions: cited from earlier work
[12] = test system: intracellular IGF-IR phosphorylation; conditions: cited from earlier work
[13] = test system: moderate-to-severe active TED; conditions: cited from earlier work

IGF-1 R, sequence (P08069 31-1367): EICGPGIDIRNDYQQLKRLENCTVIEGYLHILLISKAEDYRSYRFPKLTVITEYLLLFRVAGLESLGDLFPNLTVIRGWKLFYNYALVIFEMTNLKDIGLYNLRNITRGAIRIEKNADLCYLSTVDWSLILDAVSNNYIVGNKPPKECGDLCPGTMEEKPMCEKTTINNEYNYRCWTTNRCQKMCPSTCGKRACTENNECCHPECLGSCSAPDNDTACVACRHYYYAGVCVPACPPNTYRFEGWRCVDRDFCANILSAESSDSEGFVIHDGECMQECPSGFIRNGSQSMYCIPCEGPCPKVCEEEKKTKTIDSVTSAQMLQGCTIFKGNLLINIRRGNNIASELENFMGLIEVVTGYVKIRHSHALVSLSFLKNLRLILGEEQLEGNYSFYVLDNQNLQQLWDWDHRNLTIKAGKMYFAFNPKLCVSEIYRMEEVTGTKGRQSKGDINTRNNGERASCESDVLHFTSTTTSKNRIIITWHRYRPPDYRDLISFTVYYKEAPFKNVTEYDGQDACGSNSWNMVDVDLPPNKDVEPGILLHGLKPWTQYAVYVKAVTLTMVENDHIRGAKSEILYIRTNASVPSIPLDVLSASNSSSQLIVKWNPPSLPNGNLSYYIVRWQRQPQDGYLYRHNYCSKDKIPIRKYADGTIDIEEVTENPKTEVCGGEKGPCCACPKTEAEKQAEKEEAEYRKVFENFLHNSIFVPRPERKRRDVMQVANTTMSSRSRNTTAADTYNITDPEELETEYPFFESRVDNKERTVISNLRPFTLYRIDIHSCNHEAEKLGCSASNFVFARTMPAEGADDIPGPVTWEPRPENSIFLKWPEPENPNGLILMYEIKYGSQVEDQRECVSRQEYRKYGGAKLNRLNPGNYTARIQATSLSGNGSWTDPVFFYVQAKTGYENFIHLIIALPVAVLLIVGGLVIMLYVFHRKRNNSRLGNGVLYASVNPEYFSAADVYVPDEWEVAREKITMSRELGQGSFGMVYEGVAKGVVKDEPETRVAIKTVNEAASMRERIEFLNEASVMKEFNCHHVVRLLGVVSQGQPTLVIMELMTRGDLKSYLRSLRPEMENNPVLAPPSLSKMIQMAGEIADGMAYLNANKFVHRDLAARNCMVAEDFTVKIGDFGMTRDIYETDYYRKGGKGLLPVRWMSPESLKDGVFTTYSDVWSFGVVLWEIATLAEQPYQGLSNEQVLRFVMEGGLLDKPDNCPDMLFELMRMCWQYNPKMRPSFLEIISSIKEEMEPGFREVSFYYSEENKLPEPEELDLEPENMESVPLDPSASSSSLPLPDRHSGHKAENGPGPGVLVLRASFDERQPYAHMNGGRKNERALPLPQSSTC
c-erbB2/HER2/neu receptor, sequence (P04626 23-1255): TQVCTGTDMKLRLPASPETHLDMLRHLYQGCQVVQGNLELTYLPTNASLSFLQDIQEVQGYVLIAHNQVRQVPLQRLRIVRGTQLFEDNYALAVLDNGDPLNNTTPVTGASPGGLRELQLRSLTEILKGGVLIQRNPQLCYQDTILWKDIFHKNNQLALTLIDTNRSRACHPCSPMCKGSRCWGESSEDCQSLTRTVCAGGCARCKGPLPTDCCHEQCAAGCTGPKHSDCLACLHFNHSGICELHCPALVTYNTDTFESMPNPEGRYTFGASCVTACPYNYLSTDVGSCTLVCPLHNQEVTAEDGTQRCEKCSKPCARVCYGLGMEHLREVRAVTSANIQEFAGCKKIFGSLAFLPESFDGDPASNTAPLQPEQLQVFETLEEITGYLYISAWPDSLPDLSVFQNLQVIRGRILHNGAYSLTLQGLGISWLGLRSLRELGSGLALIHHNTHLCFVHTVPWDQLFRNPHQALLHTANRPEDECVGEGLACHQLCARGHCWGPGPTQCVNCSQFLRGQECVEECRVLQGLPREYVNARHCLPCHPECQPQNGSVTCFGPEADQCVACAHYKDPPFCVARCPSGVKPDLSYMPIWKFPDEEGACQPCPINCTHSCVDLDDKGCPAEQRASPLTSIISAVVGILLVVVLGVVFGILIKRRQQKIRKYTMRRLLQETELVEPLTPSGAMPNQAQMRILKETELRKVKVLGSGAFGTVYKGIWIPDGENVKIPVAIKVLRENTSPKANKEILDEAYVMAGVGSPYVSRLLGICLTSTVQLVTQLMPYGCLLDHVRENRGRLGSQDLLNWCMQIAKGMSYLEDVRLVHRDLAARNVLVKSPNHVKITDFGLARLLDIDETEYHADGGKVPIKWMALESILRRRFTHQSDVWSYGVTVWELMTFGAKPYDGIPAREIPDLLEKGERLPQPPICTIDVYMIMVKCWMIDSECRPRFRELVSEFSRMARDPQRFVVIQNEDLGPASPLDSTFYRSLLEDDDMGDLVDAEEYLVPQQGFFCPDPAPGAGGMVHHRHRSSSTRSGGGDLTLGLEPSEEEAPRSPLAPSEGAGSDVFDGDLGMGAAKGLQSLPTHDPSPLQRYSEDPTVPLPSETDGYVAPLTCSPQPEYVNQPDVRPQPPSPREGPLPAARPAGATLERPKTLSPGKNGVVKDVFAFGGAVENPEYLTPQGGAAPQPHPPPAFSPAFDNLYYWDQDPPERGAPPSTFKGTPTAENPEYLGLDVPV
ALK, sequence (Q9UM73 19-1620, species assumed): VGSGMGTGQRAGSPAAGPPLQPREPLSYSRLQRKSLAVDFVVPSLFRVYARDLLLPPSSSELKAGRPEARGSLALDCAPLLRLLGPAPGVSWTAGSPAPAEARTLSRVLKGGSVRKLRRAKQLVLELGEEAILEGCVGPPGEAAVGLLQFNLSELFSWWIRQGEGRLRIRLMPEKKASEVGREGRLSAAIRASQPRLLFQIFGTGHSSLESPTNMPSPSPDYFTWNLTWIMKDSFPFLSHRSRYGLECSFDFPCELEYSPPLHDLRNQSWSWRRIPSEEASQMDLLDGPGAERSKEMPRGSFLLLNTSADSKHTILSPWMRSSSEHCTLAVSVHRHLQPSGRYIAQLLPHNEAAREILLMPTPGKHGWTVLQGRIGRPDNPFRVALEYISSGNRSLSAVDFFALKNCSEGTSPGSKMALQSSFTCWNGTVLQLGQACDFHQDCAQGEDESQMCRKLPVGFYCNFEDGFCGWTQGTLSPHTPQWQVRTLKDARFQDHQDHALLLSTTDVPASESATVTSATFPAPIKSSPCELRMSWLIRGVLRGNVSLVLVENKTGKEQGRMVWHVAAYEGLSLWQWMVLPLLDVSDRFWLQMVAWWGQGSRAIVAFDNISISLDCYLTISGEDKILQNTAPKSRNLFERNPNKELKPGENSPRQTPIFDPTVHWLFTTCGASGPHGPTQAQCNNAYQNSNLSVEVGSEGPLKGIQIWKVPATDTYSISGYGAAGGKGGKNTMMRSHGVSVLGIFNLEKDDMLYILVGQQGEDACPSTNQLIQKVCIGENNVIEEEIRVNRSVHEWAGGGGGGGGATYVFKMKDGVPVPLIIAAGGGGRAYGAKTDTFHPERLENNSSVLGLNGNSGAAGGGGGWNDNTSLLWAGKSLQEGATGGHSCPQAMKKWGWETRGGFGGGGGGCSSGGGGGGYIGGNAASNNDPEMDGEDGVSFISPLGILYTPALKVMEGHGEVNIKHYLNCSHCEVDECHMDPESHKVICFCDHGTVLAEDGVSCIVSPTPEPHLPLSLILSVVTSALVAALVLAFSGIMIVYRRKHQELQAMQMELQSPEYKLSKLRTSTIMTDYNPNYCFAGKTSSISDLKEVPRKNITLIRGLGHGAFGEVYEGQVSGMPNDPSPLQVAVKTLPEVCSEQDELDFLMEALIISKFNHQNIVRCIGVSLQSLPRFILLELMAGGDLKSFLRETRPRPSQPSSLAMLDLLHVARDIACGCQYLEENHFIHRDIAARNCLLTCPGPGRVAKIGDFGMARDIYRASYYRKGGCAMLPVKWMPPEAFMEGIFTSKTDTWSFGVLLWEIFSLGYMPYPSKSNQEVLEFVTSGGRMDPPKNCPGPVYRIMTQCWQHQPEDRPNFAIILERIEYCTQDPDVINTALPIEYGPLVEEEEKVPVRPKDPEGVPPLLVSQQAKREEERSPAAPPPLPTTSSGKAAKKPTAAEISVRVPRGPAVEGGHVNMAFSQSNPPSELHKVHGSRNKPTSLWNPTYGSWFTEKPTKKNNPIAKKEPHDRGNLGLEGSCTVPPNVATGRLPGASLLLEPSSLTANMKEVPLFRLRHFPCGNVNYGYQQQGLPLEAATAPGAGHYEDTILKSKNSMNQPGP
IGF-IR (purified enzyme), sequence (P08069 31-1367): as the sequence (P08069 31-1367) above

In the case of “Dalotuzumab: IGF-1R inhibitor antibody, HC SEQ ID NO:7, LC SEQ ID NO:8”, the T1/2 ([1]; in vivo) is listed as “IV; 5 days”.

In the case of “teprotumumab: fully human IGF-IR-inhibitory monoclonal antibody approved for the treatment of TED”, the “efficacy in the treatment of TED” value ([2]; in vivo) is given as “effective”, the “average decrease in exophthalmos” value ([2]; vs. 0.15 mm in the placebo group) is given as 2.46 mm and the T1/2 ([1]; IV) is given as “IV; 8 days”.

For CCOC(=O)N1CCC(Nc2cc(Cl)cc3c(S(=O)(=O)N4CCO[C@H](COc5ccccc5)C4)c(C(N)=O)[nH]c23)CC1 [PL-225B], the IGF-1R inhibition [3] is listed as “selectively inhibits”, the tumor cell apoptosis [4] is listed as “induction of tumor cell apoptosis” and the tumor cell proliferation [4] is listed as “inhibition of tumor cell proliferation”. The T1/2 ([1]; oral) was “Oral; 21d”.

In the case of COc1cc(N2CCC(N)CC2)ccc1Nc1ncc(Cl)c(-c2c[nH]c3ccccc23)n1 [AZD3463], the IGF-1R inhibition [3] is given as “potent ALK/IGF-1 R inhibitor”, the ALK inhibition [5] is given as “potent ALK/IGF-1 R inhibitor” and the neuroblastoma growth [6] is given as “inhibition of neuroblastoma growth”.

For COCCN1CCN(CCn2ccc(Nc3ncc4c(n3)[C@@H](C)Cc3nn(C)c(-c5ccccc5)c3-4)n2)CC1 [BI885578], the in vivo half-life [7] is listed as “short in vivo half-life”, the intestinal absorption ([7]; in vivo) is listed as “rapid intestinal absorption” and the metabolic clearance ([7]; in vivo) is listed as “rapid metabolic clearance”. The “cell proliferation and apoptosis in tumors” value [8] was “inhibition of cell proliferation and induction of apoptosis in tumors”.

In the case of C[C@H](Cc1ccc(O)c(O)c1)[C@@H](C)Cc1ccc(O)c(O)c1 [INSM-18, nordihydroguaiaretic acid], the IGF-1R inhibition [3] is listed as “directly inhibits activation”, the “inhibition of activation of c-erbB2/HER2/neu receptor” value [9] is listed as “directly inhibits activation” and the “proliferation of tumor cells” value [10] is listed as “decreased proliferation”.

For “Cixutumumab: IGF-1R inhibitor antibody, HC SEQ ID NO:55, LC SEQ ID NO:56”, the T1/2 ([1]; IV) is listed as “IV; 5 days”.

For Nc1ncnc2c1c(-c1ccc3[nH]c(Cc4ccccc4Cl)nc3c1)nn2[C@H]1CC[C@H](N2CCOCC2)CC1 [Example A-928605], the “inhibition of IGF-IR” value [11] is given as “potent inhibitor” and the “inhibition of IGF-IR phosphorylation” value [12] is given as “potent inhibitor”.

For “rituximab: a CD20+ B cell-depleting agent”, the “trial result versus placebo” value ([13]; first monocenter RCT, 2015) is listed as “negative (no differences with placebo)”, the “reduction in proptosis compared with ivGCs” value ([13]; results using rituximab versus ivGC RCT) is listed as “not different” and the “trial result versus ivGCs” value ([13]; second monocenter RCT, 2015) is listed as “positive (beneficial effects comparable to ivGCs)”.

For C[C@]1(O)C[C@@H](c2nc(-c3ccc4ccc(-c5ccccc5)nc4c3)c3c(N)nccn32)C1 [Linsitinib], the T1/2 ([1]; oral) is listed as “oral; 2-4 hrs”.

B1: Figitumumab: IGF-1R inhibitor antibody, HC SEQ ID NO:39, LC SEQ ID NO:40 (antibody)
heavy: EVQLLESGGGLVQPGGSLRLSCTASGFTFSSYAMNWVRQAPGKGLEWVSAISGSGGTTFYADSVKGRFTISRDNSRTTLYLQMNSLRAEDTAVYYCAKDLGWSDSYYYYYGMDVWGQGTTVTVSSASTKGPSVFPLAPCSRSTSESTAALGCLVKDYFPEPVTVSWNSGALTSGVHTFPAVLQSSGLYSLSSVVTVPSSNFGTQTYTCNVDHKPSNTKVDKTVERKCCVECPPCPAPPVAGPSVFLFPPKPKDTLMISRTPEVTCVVVDVSHEDPEVQFNWYVDGVEVHNAKTKPREEQFNSTFRVVSVLTVVHQDWLNGKEYKCKVSNKGLPAPIEKTISKTKGQPREPQVYTLPPSREEMTKNQVSLTCLVKGFYPSDIAVEWESNGQPENNYKTTPPMLDSDGSFFLYSKLTVDKSRWQQGNVFSCSVMHEALHNHYTQKSLSLSPGK
light: DIQMTQFPSSLSASVGDRVTITCRASQGIRNDLGWYQQKPGKAPKRLIYAASRLHRGVPSRFSGSGSGTEFTLTISSLQPEDFATYYCLQHNSYPCSFGQGTKLEIKRTVAAPSVFIFPPSDEQLKSGTASVVCLLNNFYPREAKVQWKVDNALQSGNSQESVTEQDSKDSTYSLSSTLTLSKADYEKHKVYACEVTHQGLSSPVTKSFNRGEC
modifications: Heavy Chain of Figitumumab; Light Chain of Figitumumab
In the case of B1, the T1/2 ([1]; IV) is given as “IV; 20 days”.
